Results as given in patent publication US20250163104A1, “MACROCYCLIC IMMUNOMODULATORS” (priority 2021, published 2025).
Where a SMILES comes first, the peptide text is derived from it. Bridges are numbered along the chain shown (N, C = ends). [ ]: non-standard residue; d: D form. Bip = N[C@@H](Cc1ccc(-c2ccccc2)cc1)C(=O)O; Cit = NC(=O)NCCC[C@H](N)C(=O)O; Orn = NCCC[C@H](N)C(=O)O; Dab = NCC[C@H](N)C(=O)O

target: T1, human PD-1 / PD-L1-Ig binding on Jurkat cell line over-expressing human PD-1 (Jurkat-PD-1) (Homo sapiens, UniProt Q15116); assay: Jurkat-PD-1 Cell Binding High-Content Screening Assay (CBA); assay type: cell-based; settings: Jurkat HPD1_PDL1 IC50, Jurkat-PD-1 cells, PE-labeled PD-L1-Ig 20 nM final
T1 construct: expressed in transfected cells; host or cells: Jurkat
T1 sequence (Q15116 25-288): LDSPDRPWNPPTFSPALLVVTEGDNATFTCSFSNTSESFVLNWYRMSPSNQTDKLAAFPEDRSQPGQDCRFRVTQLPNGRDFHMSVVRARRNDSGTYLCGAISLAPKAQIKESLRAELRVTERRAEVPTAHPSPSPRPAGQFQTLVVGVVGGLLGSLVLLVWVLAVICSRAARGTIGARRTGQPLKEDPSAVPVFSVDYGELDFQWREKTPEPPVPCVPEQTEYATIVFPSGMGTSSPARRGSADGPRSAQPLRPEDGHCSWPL
In short: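 Binding of fluorescent PD-L1-Ig (phycoerythrin linked via the Ig tag, 20 nM final) to PD-1-overexpressing Jurkat cells was imaged after a 2 h, 37° C compound pretreatment and 1 hour ligand incubation.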

IC50 [nM] | SMILES
84.5 | CC(C)C[C@@H]1NC(=O)[C@H](Cc2c[nH]c3ccccc23)NC(=O)[C@H](CC(=O)O)NC(=O)[C@H](Cc2ccc(O)cc2)NC(=O)[C@H](Cc2ccccc2)NC(=O)CSC[C@@H](C(=O)NCC(N)=O)NC(=O)[C@H]([C@@H](C)O)NC(=O)[C@H](C(C)C)NC(=O)[C@H](CC(C)C)NC(=O)[C@H](CC(N)=O)NC(=O)[C@@H](C)NC(=O)[C@H](CCN)NC(=O)[C@H](C(C)C)NC(=O)[C@H](Cc2ccc(-c3ccccc3)cc2)NC1=O [Compound 1099] ({CH2CO}-FYDWL[Bip]V[Dab][dA]NLVTCG-NH2; thioether N-14)
310 | CC(C)C[C@@H]1NC(=O)[C@H](Cc2c[nH]c3ccccc23)NC(=O)[C@H](CC(=O)O)NC(=O)[C@H](Cc2ccc(O)cc2)NC(=O)[C@H](Cc2ccccc2)NC(=O)CSC[C@@H](C(=O)NCC(N)=O)NC(=O)[C@H]([C@@H](C)O)NC(=O)[C@H](C(C)C)NC(=O)[C@H](CC(C)C)NC(=O)[C@H](CC(N)=O)NC(=O)[C@@H](C)NC(=O)[C@H](CCCN)NC(=O)[C@H](C(C)C)NC(=O)[C@H](Cc2ccc(-c3ccccc3)cc2)NC1=O [Compound 1107] ({CH2CO}-FYDWL[Bip]V[Orn][dA]NLVTCG-NH2; thioether N-14)

same assay, conditions: Jurkat-PD-1 cells, PE-labeled PD-L1-Ig 20 nM final; read-out: Jurkat HPD1_PDL1 IC50

IC50 [nM] | SMILES
41.4 | CC(C)C[C@@H]1NC(=O)[C@H](Cc2c[nH]c3ccccc23)NC(=O)[C@H](CC(=O)O)NC(=O)[C@H](Cc2ccc(O)cc2)NC(=O)[C@H](Cc2ccccc2)NC(=O)CSC[C@@H](C(=O)N[C@@H](C)C(N)=O)NC(=O)[C@H](CO)NC(=O)[C@H](C(C)C)NC(=O)[C@H](CC(C)C)NC(=O)[C@H](CC(N)=O)NC(=O)[C@@H](C)NC(=O)[C@H](CCN)NC(=O)[C@H](C(C)C)NC(=O)[C@H](Cc2ccc(-c3ccccc3)cc2)NC1=O [Compound 1100] ({CH2CO}-FYDWL[Bip]V[Dab][dA]NLVSCA-NH2; thioether N-14)
127 | CC(C)C[C@@H]1NC(=O)[C@H](Cc2c[nH]c3ccccc23)NC(=O)[C@H](CC(=O)O)NC(=O)[C@H](Cc2ccc(O)cc2)NC(=O)[C@H](Cc2ccccc2)NC(=O)CSC[C@@H](C(=O)N[C@@H](C)C(N)=O)NC(=O)[C@H]([C@@H](C)O)NC(=O)[C@H](C(C)C)NC(=O)[C@H](CC(C)C)NC(=O)[C@H](CC(N)=O)NC(=O)[C@@H](C)NC(=O)[C@H](CCN)NC(=O)[C@H](C(C)C)NC(=O)[C@H](Cc2ccc(-c3ccccc3)cc2)NC1=O [Compound 1101] ({CH2CO}-FYDWL[Bip]V[Dab][dA]NLVTCA-NH2; thioether N-14)
71.1 | CC(C)C[C@@H]1NC(=O)[C@H](Cc2c[nH]c3ccccc23)NC(=O)[C@H](CC(=O)O)NC(=O)[C@H](Cc2ccc(O)cc2)NC(=O)[C@H](Cc2ccccc2)NC(=O)CSC[C@@H](C(=O)NCC(N)=O)NC(=O)[C@H](CO)NC(=O)[C@H](C(C)C)NC(=O)[C@H](CC(C)C)NC(=O)[C@H](CC(N)=O)NC(=O)[C@@H](C)NC(=O)[C@H](CCN)NC(=O)[C@H](C(C)C)NC(=O)[C@H](Cc2ccc(-c3ccccc3)cc2)NC1=O [Compound 1102] ({CH2CO}-FYDWL[Bip]V[Dab][dA]NLVSCG-NH2; thioether N-14)
112 | CC(C)C[C@@H]1NC(=O)[C@H](Cc2c[nH]c3ccccc23)NC(=O)[C@H](CC(=O)O)NC(=O)[C@H](Cc2ccc(O)cc2)NC(=O)[C@H](Cc2ccccc2)NC(=O)CSC[C@@H](C(=O)NCC(N)=O)NC(=O)[C@H]([C@@H](C)O)NC(=O)[C@H](C(C)C)NC(=O)[C@H](CC(C)C)NC(=O)[C@H](CCN)NC(=O)[C@@H](C)NC(=O)[C@H](CCN)NC(=O)[C@H](C(C)C)NC(=O)[C@H](Cc2ccc(-c3ccccc3)cc2)NC1=O [Compound 1103] ({CH2CO}-FYDWL[Bip]V[Dab][dA][Dab]LVTCG-NH2; thioether N-14)
43.6 | CC(C)C[C@@H]1NC(=O)[C@H](Cc2c[nH]c3ccccc23)NC(=O)[C@H](CC(=O)O)NC(=O)[C@H](Cc2ccc(O)cc2)NC(=O)[C@H](Cc2ccccc2)NC(=O)CSC[C@@H](C(=O)N[C@@H](C)C(N)=O)NC(=O)[C@H](CO)NC(=O)[C@H](C(C)C)NC(=O)[C@H](CC(C)C)NC(=O)[C@H](CCN)NC(=O)[C@@H](C)NC(=O)[C@H](CCN)NC(=O)[C@H](C(C)C)NC(=O)[C@H](Cc2ccc(-c3ccccc3)cc2)NC1=O [Compound 1104] ({CH2CO}-FYDWL[Bip]V[Dab][dA][Dab]LVSCA-NH2; thioether N-14)
102 | CC(C)C[C@@H]1NC(=O)[C@H](Cc2c[nH]c3ccccc23)NC(=O)[C@H](CC(=O)O)NC(=O)[C@H](Cc2ccc(O)cc2)NC(=O)[C@H](Cc2ccccc2)NC(=O)CSC[C@@H](C(=O)N[C@@H](C)C(N)=O)NC(=O)[C@H]([C@@H](C)O)NC(=O)[C@H](C(C)C)NC(=O)[C@H](CC(C)C)NC(=O)[C@H](CCN)NC(=O)[C@@H](C)NC(=O)[C@H](CCN)NC(=O)[C@H](C(C)C)NC(=O)[C@H](Cc2ccc(-c3ccccc3)cc2)NC1=O [Compound 1105] ({CH2CO}-FYDWL[Bip]V[Dab][dA][Dab]LVTCA-NH2; thioether N-14)
66.7 | CC(C)C[C@@H]1NC(=O)[C@H](Cc2c[nH]c3ccccc23)NC(=O)[C@H](CC(=O)O)NC(=O)[C@H](Cc2ccc(O)cc2)NC(=O)[C@H](Cc2ccccc2)NC(=O)CSC[C@@H](C(=O)NCC(N)=O)NC(=O)[C@H](CO)NC(=O)[C@H](C(C)C)NC(=O)[C@H](CC(C)C)NC(=O)[C@H](CCN)NC(=O)[C@@H](C)NC(=O)[C@H](CCN)NC(=O)[C@H](C(C)C)NC(=O)[C@H](Cc2ccc(-c3ccccc3)cc2)NC1=O [Compound 1106] ({CH2CO}-FYDWL[Bip]V[Dab][dA][Dab]LVSCG-NH2; thioether N-14)
42.5 | CC(C)C[C@@H]1NC(=O)[C@H](Cc2c[nH]c3ccccc23)NC(=O)[C@H](CC(=O)O)NC(=O)[C@H](Cc2ccc(O)cc2)NC(=O)[C@H](Cc2ccccc2)NC(=O)CSC[C@@H](C(=O)N[C@@H](C)C(N)=O)NC(=O)[C@H](CO)NC(=O)[C@H](C(C)C)NC(=O)[C@H](CC(C)C)NC(=O)[C@H](CC(N)=O)NC(=O)[C@@H](C)NC(=O)[C@H](CCCN)NC(=O)[C@H](C(C)C)NC(=O)[C@H](Cc2ccc(-c3ccccc3)cc2)NC1=O [Compound 1108] ({CH2CO}-FYDWL[Bip]V[Orn][dA]NLVSCA-NH2; thioether N-14)
36 | CC(C)C[C@@H]1NC(=O)[C@H](CCN)NC(=O)[C@@H](CC(C)C)NC(=O)[C@H](CCCN)NC(=O)[C@H](CCCNC(N)=O)NC(=O)[C@H](Cc2ccc(-c3ccccc3)cc2)NC(=O)[C@H](C(C)C)NC(=O)[C@H](Cc2c[nH]c3ccccc23)NC(=O)[C@H](CC(=O)O)NC(=O)[C@H](Cc2ccc(O)cc2)NC(=O)[C@H](CC(N)=O)NC(=O)CSC[C@@H](C(=O)N[C@@H](C)C(N)=O)NC(=O)[C@H](CO)NC(=O)[C@H](C(C)C)NC1=O [Compound 1109] ({CH2CO}-NYDWV[Bip][Cit][Orn][dL][Dab]LVSCA-NH2; thioether N-14)
35.6 | CC(C)C[C@@H]1NC(=O)[C@H](CCN)NC(=O)[C@@H](CC(C)C)NC(=O)[C@H](CCCCN)NC(=O)[C@H](CCCNC(N)=O)NC(=O)[C@H](Cc2ccc(-c3ccccc3)cc2)NC(=O)[C@H](C(C)C)NC(=O)[C@H](Cc2c[nH]c3ccccc23)NC(=O)[C@H](CC(=O)O)NC(=O)[C@H](Cc2ccc(O)cc2)NC(=O)[C@H](CC(N)=O)NC(=O)CSC[C@@H](C(=O)N[C@@H](C)C(N)=O)NC(=O)[C@H](CO)NC(=O)[C@H](C(C)C)NC1=O [Compound 1110] ({CH2CO}-NYDWV[Bip][Cit]K[dL][Dab]LVSCA-NH2; thioether N-14)
37.9 | CC(C)C[C@@H]1NC(=O)[C@H](CCN)NC(=O)[C@@H](CC(C)C)NC(=O)[C@H](CCN)NC(=O)[C@H](CCCNC(N)=O)NC(=O)[C@H](Cc2ccc(-c3ccccc3)cc2)NC(=O)[C@H](C(C)C)NC(=O)[C@H](Cc2c[nH]c3ccccc23)NC(=O)[C@H](CC(=O)O)NC(=O)[C@H](Cc2ccc(O)cc2)NC(=O)[C@H](CC(N)=O)NC(=O)CSC[C@@H](C(=O)N[C@@H](C)C(N)=O)NC(=O)[C@H](CO)NC(=O)[C@H](C(C)C)NC1=O [Compound 1111] ({CH2CO}-NYDWV[Bip][Cit][Dab][dL][Dab]LVSCA-NH2; thioether N-14)
17.1 | CC(C)C[C@@H]1NC(=O)[C@H](CCN)NC(=O)[C@@H](CC(C)C)NC(=O)[C@H](CCCN)NC(=O)[C@H](CCCNC(N)=O)NC(=O)[C@H](Cc2ccc(-c3ccccc3)cc2)NC(=O)[C@H](C(C)C)NC(=O)[C@H](Cc2c[nH]c3ccccc23)NC(=O)[C@H](CC(=O)O)NC(=O)[C@H](Cc2ccc(O)cc2)NC(=O)[C@H](CC(N)=O)NC(=O)CSC[C@@H](C(=O)NCC(N)=O)NC(=O)[C@H](CO)NC(=O)[C@H](C(C)C)NC1=O [Compound 1112] ({CH2CO}-NYDWV[Bip][Cit][Orn][dL][Dab]LVSCG-NH2; thioether N-14)
15.6 | CC(C)C[C@@H]1NC(=O)[C@H](CCN)NC(=O)[C@@H](CC(C)C)NC(=O)[C@H](CCCCN)NC(=O)[C@H](CCCNC(N)=O)NC(=O)[C@H](Cc2ccc(-c3ccccc3)cc2)NC(=O)[C@H](C(C)C)NC(=O)[C@H](Cc2c[nH]c3ccccc23)NC(=O)[C@H](CC(=O)O)NC(=O)[C@H](Cc2ccc(O)cc2)NC(=O)[C@H](CC(N)=O)NC(=O)CSC[C@@H](C(=O)NCC(N)=O)NC(=O)[C@H](CO)NC(=O)[C@H](C(C)C)NC1=O [Compound 1113] ({CH2CO}-NYDWV[Bip][Cit]K[dL][Dab]LVSCG-NH2; thioether N-14)
31.6 | CC(C)C[C@@H]1NC(=O)[C@H](CCN)NC(=O)[C@@H](CC(C)C)NC(=O)[C@H](CCN)NC(=O)[C@H](CCCNC(N)=O)NC(=O)[C@H](Cc2ccc(-c3ccccc3)cc2)NC(=O)[C@H](C(C)C)NC(=O)[C@H](Cc2c[nH]c3ccccc23)NC(=O)[C@H](CC(=O)O)NC(=O)[C@H](Cc2ccc(O)cc2)NC(=O)[C@H](CC(N)=O)NC(=O)CSC[C@@H](C(=O)NCC(N)=O)NC(=O)[C@H](CO)NC(=O)[C@H](C(C)C)NC1=O [Compound 1114] ({CH2CO}-NYDWV[Bip][Cit][Dab][dL][Dab]LVSCG-NH2; thioether N-14)
